# According to patent publication US11000528B2, “Compound useful for the treatment of degenerative and inflammatory diseases” (Galapagos NV, priority 2009, dated 2021):
# How the values were obtained:
# [1] = Microsomal stability, rat liver microsomes; format: in vitro ADME; details: 3 μM compound
# Experimental: (§1) A 10 mM stock solution of compound in DMSO was diluted 1000 fold in a 182 mM phosphate buffer pH7.4 in a 96 deep well plate (Greiner, Cat no. 780285) and pre-incubated at 37° C.
# (§2) 40 μL of deionised water was added to a well of a polypropylene Matrix 2D barcode labelled storage tube (Thermo Scientific) and pre-incubated at 37° C.
# (§3) A Glucose-6-phophate-dehydrogenase (G6PDH) working stock solution was prepared in 182 mM phosphate buffer pH7.4 and placed on ice before use. A co-factor containing MgCl2, glucose-6-phosphate and NADP+ was prepared in deionised water and placed on ice before use.
# (§4) A final working solution containing liver microsomes (Xenotech) of a species of interest (human, mouse, rat, dog), previously described G6PDH and co-factors was prepared and this mix was incubated for no longer than 20 minutes at room temperature.
# (§5) 30 μL of the pre-heated compound dilution was added to 40 μL of pre-heated water in the Matrix tubes and 30 μL of the microsomal mix was added. Final reaction concentrations were 3 μM compound, 1 mg microsomes, 0.4 U/mL GDPDH, 3.3 mM MgCl2, 3.3 mM glucose-6-phosphate and 1.3 mM NADP+.
# (§6) To measure percentage remaining of compound at time zero MeOH or ACN was added (1:1) to the well before adding the microsomal mix. The plates were sealed with Matrix Sepra Seals™ (Matrix, Cat. No. 4464) and shaken for a few seconds ensure complete mixing of all components.
# (§7) The samples which were not stopped are incubated at 37° C., 300 rpm and after 1 hr of incubation the reaction was stopped with MeOH or ACN (1:1).
# (§8) After stopping the reaction the samples were mixed and placed on ice for 30 min to precipitate the proteins. The plates were then centrifuged 30 min at 1200 rcf at 4° C. and the supernatant was transferred to a 96 v-bottom PP plate (Greiner, 651201) for analysis on LCMS.
# (§9) These plates were sealed with sealing mats (MA96RD-04S) of www.kinesis.co.uk and samples were measured at room temperature on LCMS (ZQ 1525 from Waters) under optimized conditions using Quanoptimize to determine the appropriate mass of the parent molecule.
# (§10) The samples were analyzed on LCMS with a flow rate of 1 mL/min. Solvent A was 15 mM ammonia and solvent B was methanol or acetonitrile, depending on the stop solution used. The samples were run under positive ion spray on an XBridge C18 […] (2.1×30 mm) column, from Waters.
# (§11) Peak area from the parent compound at time 0 was considered to be 100% remaining. The percentage remaining after 1 hr incubation was calculated from time 0 and was calculated as the percentage remaining. The solubility of the compound in the final test concentration in buffer is inspected by microscope and results are reported.
# (§12) The data on microsomal stability are expressed as a percentage of the total amount of compound remaining after 60 min.
# [2] = tested on: JAK-STAT signalling in HeLa cells; assay: JAK-STAT signalling assay (OSM-triggered pSTAT1(2)-luciferase reporter in HeLa cells); format: cell-based; details: Homo sapiens, human OSM 33 ng/mL, STAT1 luciferase reporter
# Experimental: HeLa cells were maintained in Dulbecco's Modified Eagle's Medium (DMEM) containing 10% heat inactivated fetal calf serum, 100 U/mL penicillin and 100 μg/mL streptomycin. HeLa cells were used at 70% confluence for transfection. 20,000 cells in 87 μL cell culture medium were transiently transfected with 40 ng pSTAT1(2)-luciferase reporter (Panomics), 8 ng of LacZ reporter as internal control reporter and 52 ng of pBSK using 0.32 μL Jet-PEI (Polyplus) as transfection reagent per well in 96-well plate format. After overnight incubation at 37° C., 10% CO2, transfection medium was removed.
# 40 μL of cell lysate was used to read β-galactosidase activity by adding 180 μL β-Gal solution (30 μL ONPG 4 mg/mL+150 μL β-Galactosidase buffer (0.06 M Na2HPO4, 0.04 M NaH2PO4, 1 mM MgCl2)) for 20 min.
# The positive and negative controls were used to calculate z′ and ‘percent inhibition’ (PIN) values.
# PIN values were plotted for compounds tested in dose-response and EC50 values were derived.
# [3] = Microsomal stability, human liver microsomes; format: in vitro ADME; details: 3 μM compound
# Experimental: as §1, §2, §3, §4, §5, §6, §7, §8, §9, §10, §11, §12
# [4] = Pharmacokinetic study in rodents (Sprague-Dawley rats); format: in vivo; details: male, plasma; Sprague-Dawley rat, IV 1 mg/kg
# Experimental: Sprague-Dawley rats (male, 5-6 weeks old) were obtained from Janvier (France). Rats were acclimatized for at least 7 days before treatment and were kept on a 12 hr light/dark cycle (0700-1900). Temperature was maintained at approximately 22° C., and food and water were provided ad libitum. […] After the surgery, rats were housed individually. Rats were deprived of food for at least 16 hours before oral dosing and 6 hours after. Water was provided ad libitum.
# Test compounds were orally dosed as a single esophageal gavage at 5 mg/kg under a dosing volume of 5 ml/kg and intravenously dosed as a bolus via the caudal vein at 1 mg/kg under a dosing volume of 5 mL/kg. Each group consisted of 3 rats. […] For compound 11, blood samples were collected at the retro-orbital sinus with lithium heparin as anti-coagulant at the following time points 0.25, 1, 3 and 6 hrs (oral route). Whole blood samples were centrifuged at 5000 rpm for 10 min and the resulting plasma samples were stored at −20° C. pending analysis.
# Plasma concentrations of each test compound were determined by an LC-MS/MS method in which the mass spectrometer was operated in positive electrospray mode.
# Pharmacokinetic parameters were calculated using Winnonlin® (Pharsight®, United States).
# [5] = tested on: rat CIA model; assay: Rat collagen induced arthritis (CIA) model; format: in vivo; design: key to Clinical Assessment End point score / Clinical Assessment AUC Score / Paw swelling / Larsen' Score: a “*” indicates that there was a statistically significant improvement in the score, p 0.05 vs. untreated control; details: for Clinical Assessment AUC Score / Clinical Assessment End point score: normalized score
# Experimental: Dark Agouti rats (male, 7-8 weeks old) were obtained from Harlan Laboratories (Maison-Alfort, France). Rats were kept on a 12 hr light/dark cycle (0700-1900). Temperature was maintained at 22° C., and food and water were provided ad libitum.
# One day before the experiment, CII solution (2 mg/mL) was prepared with 0.05 M acetic acid and stored at 4° C. Just before the immunization, equal volumes of adjuvant (IFA) and CII were mixed by a homogenizer in a pre-cooled glass bottle in an ice water bath. Extra adjuvant and prolonged homogenization may be required if an emulsion is not formed. 0.2 mL of the emulsion was injected intradermally at the base of the tail of each rat on day 1, a second booster intradermal injection (CII solution at 2 mg/mL in CFA 0.1 mL saline) was performed on day 9. This immunization method was modified from published methods (Sims et al, 2004; Jou et al., 2005).
# The therapeutic effects of the compounds were tested in the rat CIA model. Rats were randomly divided into equal groups and each group contained 10 rats. All rats were immunized on day 1 and boosted on day 9. Therapeutic dosing lasted from day 16 to day 30. The negative control group was treated with vehicle (MC 0.5%) and the positive control group with Enbrcl (10 mg/kg, 3× week., s.c.). A compound of interest was typically tested at 3 doses, e.g. 3, 10, 30 mg/kg, p.o.
# Arthritis is scored according to the method of Khachigian 2006, Lin et al 2007 and Nishida et al. 2004). The swelling of each of the four paws is ranked with the arthritic score as follows: 0-no symptoms; 1-mild, but definite redness and swelling of one type of joint such as the ankle or wrist, or apparent redness and swelling limited to individual digits, regardless of the number of affected digits; 2-moderate redness and swelling of two or more types of joints; 3-severe redness and swelling of the entire paw including digits; 4-maximally inflamed limb with involvement of multiple joints (maximum cumulative clinical arthritis score 16 per animal) (Nishida et al., 2004).
# To permit the meta-analysis of multiple studies the clinical score values were normalised as follows:
# AUC of clinical score (AUC score): The area under the curve (AUC) from day 1 to day 14 was calculated for each individual rat. The AUC of each animal was divided by the average AUC obtained for the vehicle in the study from which the data on that animal was obtained and multiplied by 100 (i.e. the AUC was expressed as a percentage of the average vehicle AUC per study).
# Clinical score increase from day 1 to day 14 (End point score): The clinical score difference for each animal was divided by the average clinical score difference obtained for the vehicle in the study from which the data on that animal was obtained and multiplied by 100 (i.e. the difference was expressed as a percentage of the average clinical score difference for the vehicle per study).
# X-ray photos were taken of the hind paws of each individual animal. A random blind identity number was assigned to each of the photos, and the severity of bone erosion was ranked by two independent scorers with the radiological Larsen's score system as follows: 0—normal with intact bony outlines and normal joint space; 1—slight abnormality with any one or two of the exterior metatarsal bones showing slight bone erosion; 2—definite early abnormality with any three to five of the exterior metatarsal bones showing bone erosion; 3—medium destructive abnormality with all the exterior metatarsal bones as well as any one or two of the interior metatarsal bones showing definite bone erosions; 4—severe destructive abnormality with all the metatarsal bones showing definite bone erosion and at least one of the inner metatarsal joints completely eroded leaving some bony joint outlines partly preserved; 5—mutilating abnormality without bony outlines. This scoring system is a modification from Salvemini et al., 2001; Bush et al., 2002; Sims et al., 2004; Jou et al., 2005.
# [6] = tested on: MMP13 levels in human chondrosarcoma cell line SW1353; assay: cells; details: SW1353, 48 h
# Experimental: The cells were seeded in 96 well plates at 15,000 cells/well in a volume of 120 μL DMEM (Invitrogen) containing 10% (v/v) FBS and 1% penicillin/streptomycin (InVitrogen) incubated at 37° C. 5% CO2. Cells were preincubated with 15 μL of compound in M199 medium with 2% DMSO 1 hr before triggering with 15 μL OSM and IL-1β to reach 25 ng/mL OSM and 1 ng/mL IL-1β, and MMP13 levels were measured in conditioned medium 48 hours after triggering. MMP13 activity was measured using an antibody capture activity assay. For this purpose, 384 well plates (NUNC, 460518, MaxiSorb black) were coated with 35 μL of a 1.5 μg/mL anti-human MMP13 antibody (R&D Systems, MAB511) solution for 24 hrs at 4° C. After washing the wells 2 times with PBS+0.05% Tween, the remaining binding sites were blocked with 100 μL 5% non-fat dry milk (Santa Cruz, sc-2325, Blotto) in PBS for 24 hr at 4° C. […] After incubation for 24 hrs at 37° C. fluorescence of the converted substrate was measured in a Perkin Elmer Wallac EnVision 2102 Multilabel Reader (wavelength excitation: 320 nm, wavelength emission: 405 nm). Percentage inhibition=((fluorescence determined in the presence of vehicle−fluorescence determined for sample with test compound present) divided by (fluorescence determined in the presence of vehicle−fluorescence determined for sample without trigger))*100.
# [7] = tested on: Circulating TNF alpha levels; assay: Septic shock model (LPS-induced TNF alpha release); format: in vivo, mouse; details: BALB/cJ mice, 30 mg/kg po, LPS 15 μg/kg ip
# Experimental: Injection of lipopolysaccharide (LPS) induces a rapid release of soluble tumour necrosis factor (TNF-alpha) into the periphery. This model was used to analyse prospective blockers of TNF release in vivo. Six BALB/cJ female mice (20 g) per group were treated at the intended dosing once, po. Thirty minutes later, LPS (15 μg/kg; E. coli serotype 0111:B4) was injected ip. Ninety minutes later, mice were euthanized and blood was collected. Circulating TNF alpha levels were determined using commercially available ELISA kits. Dexamethasone ([…]) was used as a reference anti-inflammatory compound. Selected compounds were tested at one or multiple doses, e.g. 3 and/or 10 and/or 30 mg/kg, po.
compound,measurement,setting,value
"O=C(Nc1nc2cccc(-c3ccc(CN4CCC(F)(F)CC4)cc3)n2n1)C1CC1 [Compound 11, Cyclopropanecarboxylic acid {5-[4-(4,4-difluoro-piperidin-1-ylmethyl)-phenyl]-[1,2,4]triazolo[1,5-a]pyridin-2-yl}-amide]","microsomal stability, percentage of compound remaining after 60 min, Rat",[1],26%
same,EC50,[2],740 nM
same,"microsomal stability, percentage of compound remaining after 60 min, Human",[3],51%
"O=C(Nc1nc2cccc(-c3ccc(C(=O)N4CCS(=O)(=O)CC4)cc3)n2n1)C1CC1 [Compound 10, Cyclopropanecarboxylic acid {5-[4-(1,1-dioxo-1-thiomorpholine-4-carbonyl)-phenyl]-[1,2,4]triazolo[1,5-a]yridin-2-yl}-amide]","microsomal stability, percentage of compound remaining after 60 min, Rat",[1],89%
same,"microsomal stability, percentage of compound remaining after 60 min, Human",[3],102%
"O=C(Nc1nc2cccc(-c3ccc(CN4CCOCC4)cc3)n2n1)C1CC1 [Compound 2, N-(5-(4-(morpholinomethyl)phenyl)-[1,2,4]triazolo[1,5-a]pyridin-2-yl)cyclopropanecarboxamide]",C0,[4],863 ng/mL
same,"microsomal stability, percentage of compound remaining after 60 min, Rat",[1],38%
same,"microsomal stability, percentage of compound remaining after 60 min, Human",[3],73%
same,normalized clinical score values (on day 14),[5]; dose of 10 mg/kg,statistically significant improvements
same,Larsen score,[5]; dose of 30 mg/kg,statistically significant increase
same,paw swelling readout,[5]; dose of 30 mg/kg,statistically significant increase
"O=C(Nc1nc2cccc(-c3ccc(CN4CCS(=O)(=O)CC4)cc3)n2n1)C1CC1 [Compound 1, Cyclopropanecarboxylic acid {5-[4-(1,1-dioxo-1-thiomorpholin-4-ylmethyl)-phenyl]-[1,2,4]triazolo[1,5-a]pyridin-2-yl}-amide]",C0,[4],1410 ng/mL
same,EC50,[6],2240 nM
same,"microsomal stability, percentage of compound remaining after 60 min, Rat",[1],65.6%
same,activity in septic shock model (blocking of TNF release),[7],active
same,"microsomal stability, percentage of compound remaining after 60 min, Human",[3],87.2%
same,Clinical Assessment AUC Score,[5]; 0.1 mg/kg/day p.o.,*
same,Clinical Assessment End point score,[5]; 0.1 mg/kg/day p.o.,*
same,Paw swelling,[5]; 0.3 mg/kg/day p.o.,*
same,Clinical Assessment AUC Score,[5]; 0.3 mg/kg/day p.o.,*
same,Clinical Assessment End point score,[5]; 0.3 mg/kg/day p.o.,*
same,Paw swelling,[5]; 1 mg/kg/day p.o.,*
same,Clinical Assessment AUC Score,[5]; 1 mg/kg/day p.o.,*
same,Clinical Assessment End point score,[5]; 1 mg/kg/day p.o.,*
same,Larsen' Score,[5]; 3 mg/kg/day p.o.,*
same,Paw swelling,[5]; 3 mg/kg/day p.o.,*
same,Clinical Assessment AUC Score,[5]; 3 mg/kg/day p.o.,*
same,Clinical Assessment End point score,[5]; 3 mg/kg/day p.o.,*
same,normalized clinical score values (calculated as AUC or as the difference from day 1 to day 14),[5]; dose of 0.1 mg/kg,statistically significant improvements
same,paw swelling readout,[5]; dose of 0.3 mg/kg,statistically significant increase
same,Larsen score,[5]; dose of 3 mg/kg,statistically significant increase
same,improvement in efficacy over Compound 2 when the oral doses are compared,[5]; oral doses compared,100 fold
